Read-outs that look alike come from different tables or passages of the source.
What was measured:
[1] = test system: mild to moderate UC; details: cited from earlier work
[2] = biological target: human beta-tryptase (Homo sapiens, UniProt P20231); test: Inhibition of recombinant human beta-tryptase (Ki); format: biochemical; details: recombinant enzyme
[3] = test system: TNBS-induced ulcerative colitis; test: Murine TNBS-induced ulcerative colitis; format: in vivo, male balb/mice; details: for % protective effect vs. TNBS alone: Colon wt/length (TNBS-719)/(TNBS-ctl) / % protective effect vs. TNBS alone: Diarrhea / % protective effect vs. TNBS alone: Dilation / % protective effect vs. TNBS alone: MPO / % protective effect vs. TNBS alone: Macroscopic Score / % protective effect vs. TNBS alone: Ulceration / % protective effect vs. TNBS alone: Body wt d 4 (% Δ719-% ΔTNBS)/(% Δ Ctl-% ΔTNBS) / % protective effect vs. TNBS alone: Tissue TNFα: day 4; for % protective effect vs. TNBS alone: Body wt d 4 (% Δ719-% ΔTNBS)/(% Δ Ctl-% ΔTNBS): oral once daily
Description: The effect of the compound of Formula I in murine TNBS-induced ulcerative colitis. TNBS (Trinitro benzene sulfonic acid) is known to induce colitis in some strains of mice and rats by haptenating colonic proteins, resulting in an immune response. This model resembles multiple features, both histologic and immunologic, of human IBD (particularly Crohn's disease).
In some experiments, male balb/mice were pre-sensitized with 1% TNBS administered epicutaneously on day −7. On Day 0, TBNS (2.5 mg/100 mcl) in 35% ethanol or 100 mg/kg TNBS in 50% ethanol, was administered intrarectally, and colitis-relevant readouts were measured 4 days later. The compound of Formula I as hydrochloride salt or as fumarate salt was administered orally in 1% carboxymethylcellulose-Tween. Sulfazalazine was given at 100 mg/kg. Both compounds were given once daily.
• 0 No damage • 1 Hyperemia without ulcers • 2 Hyperemia and bowel wall thickening without ulcers • 3 One site of ulceration without bowel wall thickening • 4 Two or more sites of ulceration/inflammation • 5 0.5 cm inflammation and major damage • 6-10 1 cm or more of major damage (0.5 cm=1 point) • 0/1 Diarrhea +/− • 0/1/2 No dilatation/partial dilatation/dilatation in the whole length

[4] = biological target: T1, mouse MCPT-6 (mouse orthologue of human beta-tryptase) (Mus musculus, UniProt P21845); test: Inhibition of recombinant mouse MCPT-6 (Ki); format: biochemical; details: recombinant enzyme
T1 sequence (P21845 32-276): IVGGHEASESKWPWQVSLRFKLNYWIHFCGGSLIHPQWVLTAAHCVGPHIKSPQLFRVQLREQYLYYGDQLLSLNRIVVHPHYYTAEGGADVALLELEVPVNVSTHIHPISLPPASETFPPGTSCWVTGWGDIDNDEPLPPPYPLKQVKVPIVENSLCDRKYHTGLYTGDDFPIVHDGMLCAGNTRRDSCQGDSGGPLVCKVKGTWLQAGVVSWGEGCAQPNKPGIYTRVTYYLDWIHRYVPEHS

[5] = test system: TNBS-induced colitis; details: rat; intra-colonic injections of NM 10-9, 10-11 and 10-13 M daily for 6 days; compared with 5-ASA 25 mg/Kg; cited from earlier work
[6] = biological target: b-tryptase (Homo sapiens, UniProt P20231); details: reported selective b-tryptase inhibitor at low doses; cited from earlier work
b-tryptase, sequence (P20231 31-275): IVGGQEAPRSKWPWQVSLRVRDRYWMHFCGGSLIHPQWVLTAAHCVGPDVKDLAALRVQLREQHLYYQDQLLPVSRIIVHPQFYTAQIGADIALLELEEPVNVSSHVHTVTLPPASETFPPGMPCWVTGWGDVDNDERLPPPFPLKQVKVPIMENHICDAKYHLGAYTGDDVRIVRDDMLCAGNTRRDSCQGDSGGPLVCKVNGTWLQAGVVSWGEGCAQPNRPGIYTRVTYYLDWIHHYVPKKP

[7] = first Formula I / sulfazalazine column pair, sulfazalazine 100 mg/kg
[8] = second Formula I / sulfazalazine column pair, sulfazalazine 100 mg/kg

human beta-tryptase, sequence (P20231 31-275): as above

| Structure (SMILES) | % protective effect vs. TNBS alone: Body wt d 4 (% Δ719-% ΔTNBS)/(% Δ Ctl-% ΔTNBS) [3, 7] [%] | % protective effect vs. TNBS alone: Colon wt/length (TNBS-719)/(TNBS-ctl) [3, 7] [%] | % protective effect vs. TNBS alone: Diarrhea [3, 7] [%] | % protective effect vs. TNBS alone: Dilation [3, 7] [%] | % protective effect vs. TNBS alone: MPO [3, 7] [%] | % protective effect vs. TNBS alone: Macroscopic Score [3, 7] [%] | % protective effect vs. TNBS alone: Tissue TNFα [3, 7] [%] | % protective effect vs. TNBS alone: Ulceration [3, 7] [%] | % protective effect vs. TNBS alone: Body wt d 4 (% Δ719-% ΔTNBS)/(% Δ Ctl-% ΔTNBS) [3, 8] [%] | % protective effect vs. TNBS alone: Colon wt/length (TNBS-719)/(TNBS-ctl) [3, 8] [%] | % protective effect vs. TNBS alone: Diarrhea [3, 8] [%] | % protective effect vs. TNBS alone: Dilation [3, 8] [%] | % protective effect vs. TNBS alone: MPO [3, 8] [%] | % protective effect vs. TNBS alone: Macroscopic Score [3, 8] [%] | % protective effect vs. TNBS alone: Ulceration [3, 8] [%] | further results |
| --- | --- | --- | --- | --- | --- | --- | --- | --- | --- | --- | --- | --- | --- | --- | --- | --- |
| NC(N)=Nc1ccc(CN2CCN(C(=O)O[C@@H]3CO[C@H]4[C@@H]3OC[C@H]4OC(=O)N3CCN(Cc4ccc(N=C(N)N)cc4)CC3)CC2)cc1 [APC-2059] |  |  |  |  |  |  |  |  |  |  |  |  |  |  |  | safety and tolerability ([1]; 20 mg, SC, BID for 28 days on background of oral 5-ASA): safe and well tolerated; patients meeting remission criteria (DAI=0) ([1]; 20 mg, SC, BID, 28 days, 5/56): 9%; patients meeting primary EP as responded (DAI≦3) ([1]; 20 mg, SC, BID, 28 days, 16/56): 29%; patients meeting improved criteria (DAI≦3 or decreased by 4 points from baseline) ([1]; 20 mg, SC, BID, 28 days, 27/56): 49%; response rate, post hoc ([1]; baseline DAI score 7-9, 6/33): 18%; response rate, post hoc ([1]; baseline DAI scores 6-7, 10/22): 45%; response, post hoc ([1]; one patient, baseline DAI=11): did not respond |
| COCCn1cc(C(=O)N2CCC(c3cc(CN)ccc3F)CC2)c2c(OC(F)(F)F)ccc(F)c21 [Formula I, [4-(5-Aminomethyl-2-fluorophenyl)piperidine-1-yl][7-fluoro-1-(2-methoxyethyl)-4-trifluoromethoxy-1H-indol-3-yl]methanone] | 20 | 41 | 50 | 55 | 13 | 51 | 50 | 50 | 27 | 23 | 57 | 33 | 19 | 30 | 21 | Ki [2]: 38 nM; % protective effect vs. TNBS alone: Colon wt/length (TNBS-719)/(TNBS-ctl) ([3]; Formula I 3 mpk): −10%; % protective effect vs. TNBS alone: Diarrhea ([3]; Formula I 3 mpk): 50%; % protective effect vs. TNBS alone: Dilation ([3]; Formula I 3 mpk): 25%; % protective effect vs. TNBS alone: MPO ([3]; Formula I 3 mpk): 0%; % protective effect vs. TNBS alone: Macroscopic Score ([3]; Formula I 3 mpk): 25%; % protective effect vs. TNBS alone: Ulceration ([3]; Formula I 3 mpk): 23%; % protective effect vs. TNBS alone: Colon wt/length (TNBS-719)/(TNBS-ctl) ([3]; Formula I 10 mpk): 16%; % protective effect vs. TNBS alone: Diarrhea ([3]; Formula I 10 mpk): 50%; % protective effect vs. TNBS alone: Dilation ([3]; Formula I 10 mpk): 38%; % protective effect vs. TNBS alone: MPO ([3]; Formula I 10 mpk): 0%; % protective effect vs. TNBS alone: Macroscopic Score ([3]; Formula I 10 mpk): 27%; % protective effect vs. TNBS alone: Ulceration ([3]; Formula I 10 mpk): 25%; decrease of macroscopic damage ([3]; doses ranging from 3-30 mg/kg, oral, once daily, hydrochloride or fumarate salt): 20-50%; protective effects in multiple aspects of experimental colitis ([3]; oral, once daily, versus sulfazalazine positive control): compared well with the sulfazalazine positive control; Ki [4]: 920 nM |
| N=C(N)c1ccc2cc(OC(=O)c3ccc(N=C(N)N)cc3)ccc2c1 [Nafamostat mesilate] |  |  |  |  |  |  |  |  |  |  |  |  |  |  |  | colonic mucosal inflammation [5]: significantly attenuated; Ki [6]: 0.095 nM |
| O=C(O)c1cc(/N=N/c2ccc(S(=O)(=O)Nc3ccccn3)cc2)ccc1O [sulfazalazine, reference compound] | 46 | 29 | 50 | 33 | 44 | 51 | 50 | 53 | 10 | 23 | 43 | 8 | 21 | 14 | 11 |  |

From patent publication US20120238603A1, “TREATMENT FOR INFLAMMATORY BOWEL DISEASE” (SANOFI, priority 2009, published 2012)
